Test results published in US20240091267A1, “PRE-TREATMENT OF MSC WITH PPARB/DELTA AGONIST FOR TREATMENT OF ISCHEMIA-REPERFUSION INJURY” (Universite de Montpellier, priority 2020, published 2024).

Experiments:
[1] = test system: LV protein extracts from murine IR hearts; assay: Western blot of LV protein extracts from ex vivo IR hearts (cleaved caspase 3, pAKT/AKT, pERK1/2/ERK1/2); parameters: species or system mouse (C57BL/6J); settings: for Cleaved caspase 3 (caspase 3 activation): IR hearts reperfused with MSC 2500 cells/mL, pre-treated 24 h or not (GW0742 1 μM)
Description: FIG. 9: (A) C57B16 mouse hearts were mounted on a Langendorff system. The ex vivo protocol comprises a 15 minute-period of stabilization, followed by 30 minutes of global ischemia achieved by stopping the flow through the aorta (no-flow). Reperfusion was achieved by restoring the Tyrode perfusion during 60 minutes (IR group). […] At the end of the protocol, hearts were collected, protein extracted for further analysis. (B, C, D) Western blot analysis was performed from LV protein extracts from IR non-treated or MSC-treated murine IR hearts (ex vivo) with or without a pharmacological pre-treatment. Scatter dot blots and mean±SD were plotted for Cleaved-caspase 3 (W=0.0322 for IR, n=10 vs MSC +GW0742, n=10) and for pAKT/AKT (p*=0.0385 for IR, n=8 vs MSC+GW0742, n=8). Data were compared using non parametric Kruskal-Wallis test (Dunn's post hoc test).
On the Langendorff system, the heart was subjected to ischemia-reperfusion (IR) protocol comprising, after a 15 min-stabilization period of Tyrode perfusion, a 30 min-period of no-flow to induce global ischemia). Reperfusion was achieved by restoring the perfusion during 60 min with the Tyrode solution alone (IR control) or with MSC cell in Tyrode solution (MSC) administrated during reperfusion. Ischemic postconditioning was induced at the end of global ischemia by the application of a conditioning stimulus comprising 3 cycles of 1 min-reperfusion/1 min-ischemia, followed by 54 min of reperfusion. For the ex vivo evaluation of MSC-based cell therapy, 80 to 150 mL of MSC (mean value 120 mL) cells prepared in the Tyrode solution at various concentrations (2500, 5000 et 20000 cells/mL) were perfused retrogradely via the aorta and the coronary vessels in isolated hearts during the 60 min-reperfusion phase.
Tissue samples (left ventricle) were rapidly frozen in liquid nitrogen after the end of ex vivo IR protocols. […] Protein concentrations were determined with the bicinchoninic acid (BCA) protein assay kit (Pierce). […]

MSC = assay: RT-qPCR relative gene expression in untreated or preconditioned MSC; assay type: cell-based, mouse; settings: for hgf transcripts / pdgf transcripts / vegf-α transcripts: then H2O2 4 h, vs untreated MSC/H2O2; for bcl2 gene expression level: then H2O2, vs H2O2-treated MSC
Description: FIG. 8: (A) 48 hours after the seeding step in complete medium, MSC were subjected to H2O2-induced oxidative stress during 4 hours in minimal medium with serum deprivation. Pharmacological preconditioning of MSC using PPARβ/δ agonist or antagonist was performed 24 hours before oxidative stress exposure. At the end of the protocol, relative gene expression was analyzed measuring transcript amounts by RT-qPCR. mRNA expression levels in untreated or preconditioned MSC exposed to an oxidative stress were assessed by RT-qPCR for (B) vegf: data (mean±SEM) were compared using ANOVA and the Tukey's post hoc for multiple comparisons (normality test passed). […] P values were ns versus H2O2, n=7 for control n=8, GW0742 0.1 μM n=7, GW0742 1 μM n=9, GSK0660 0.1 μM n=6 and GSK0660 1 μM n=9; and (D) for pdgf: data (mean±SEM) were compared using ANOVA and the Tukey's post hoc for multiple comparisons (normality test passed). […] For statistical analysis comparisons were made to the untreated MSC/H2O2 group.
MSCs were pre-incubated for 24 hours with either PPARβ/δ antagonists GSK3787 (0.1 and 1 μM), PPARβ/δ inverse agonist GSK0660 (0.1 and 1 μM) or PPARβ/δ agonist GW0742 (0.1, 1 and 5 μM) before to be washed with PBS and used in co-cultures experiments or injected in the myocardium. When indicated, MSCs were labeled with the fluorescent cell-tracer CM-Dil (Molecular Probes). MSC were collected and suspended in 5 mL PBS containing CM-Dil (10^7 cells/10 μg) prior to be incubated at 37° C. for 5 minutes followed by 15 minutes at 4° C., in the dark. Labeled MSCs were washed 2 times in PBS, resuspended in PBS and maintained at 4° C. prior to be injected in the myocardium.
Isolation of total RNA for each sample was performed using the RNeasy Mini Kit (Qiagen, Courtaboeuf). The quantity and quality of the RNA extracted were defined by using a NanoDrop ND-1000 spectrophotometer (NanoDrop ND, Thermo Fisher Scientific). Then, using the SensiFAST cDNA synthesis kit (Bioline), cDNA was synthesized by reverse transcribing 500 ng RNA into cDNA. Using the SensiFAST™ SYBR (Bioline) and a LightCycler® 480 Detection system Quantitative following manufacturer's recommendations, PCR were performed. Primers specific for angpl4, pdk4, bcl2, hgf, pdgf, nrf2 were designed using the Primer3 software. Data were normalized to the housekeeping gene ribosomal protein S9 (RPS9) and the values were expressed as relative mRNA level of specific gene expression as calculated using the 2^−ΔCt method.

[2] = MSC pretreated 24 h with 0.1 μM
[3] = pretreatment of cultured MSC (data not shown)

| Structure (SMILES) | Cleaved caspase 3 (caspase 3 activation) [1] | hgf transcripts (MSC; [2]) | pdgf transcripts (MSC; [2]) | vegf-α transcripts (MSC; [2]) | hgf transcripts (MSC; MSC pretreated 24 h with 1 μM) | pdgf transcripts (MSC; MSC pretreated 24 h with 1 μM) | vegf-α transcripts (MSC; MSC pretreated 24 h with 1 μM) | bcl2 gene expression level (MSC; MSC pretreated 24 h with 1 μM) | Phosphorylation ratio pAkt/Akt ([1]; IR hearts, MSC pre-treated with 1 μM prior to administration during reperfusion, vs non-treated IR) | bcl2 gene expression level (MSC; [2]) | angpl4 target gene expression level (MSC; [3]) | pdk4 target gene expression level (MSC; [3]) |
| --- | --- | --- | --- | --- | --- | --- | --- | --- | --- | --- | --- | --- |
| COC(=O)c1sccc1S(=O)(=O)Nc1ccc(Nc2ccccc2)cc1OC [GSK0660] | restored full activation of caspase 3 | A similar tendency was observed | A similar tendency was observed | significantly decreased | A similar tendency was observed | A similar tendency was observed | significantly decreased | significantly reduced bcl2 gene expression level |  |  |  |  |
| Cc1cc(SCc2sc(-c3ccc(C(F)(F)F)c(F)c3)nc2C)ccc1OCC(=O)O [GW0742] | inhibition of caspase 3 cleavage was further increased | did not modify |  | did not modify | did not modify | significantly increased the expression of pdgf | did not modify |  | significantly increased phosphorylation ratio pAkt/Akt | significant increase in bcl2 gene expression level | increased expression levels | increased expression levels |
